The record followed here is ChEMBL document CHEMBL1131982, “N-[2-(1-cyclohexenyl)ethyl]-N'-[2-(5-bromopyridyl)]-thiourea and N'-[2-(1-cyclohexenyl)ethyl]-N'-[2-(5-chloropyridyl)]-thiourea as potent inhibitors of multidrug-resistant human immunodeficiency virus-1” (Bioorg Med Chem Lett, 1999).

The target of test [1] is Human immunodeficiency virus type 1 reverse transcriptase (Human immunodeficiency virus 1, UniProt Q72547). Briefly: Inhibitory activity against recombinant HIV-1 reverse transcriptase (rRT).
Test [2] in a line: Anti-HIV activity by its ability to inhibit the replication of HIV-1 strain A17 (Y181C) in peripheral blood mononuclear cells (PBMC). Format: functional. Conditions: Homo sapiens.
Test [3] in a line: Anti-HIV activity by its ability to inhibit the replication of HIV-1 strain A17 variant (Y181C,K103N) in peripheral blood mononuclear cells (PBMC). The test is classed as functional, Homo sapiens.
The nature of test [4]: Anti-HIV activity by its ability to inhibit the replication of HIV-1 strain HTLV IIIB in peripheral blood mononuclear cells (PBMC). Format: functional. Conditions: Homo sapiens.
Test [5] can be described thus: Anti-HIV activity by its ability to inhibit the replication of HIV-1 strain RT-MDR(V106A) in peripheral blood mononuclear cells (PBMC). The test is classed as functional. Conditions: Homo sapiens.
A short description of test [6]: Compound was evaluated for the cytotoxic activity by using Microculture Tetrazolium assay (MTA). The test is classed as functional.

SMILES strings stand for the structures. Bounds are passed on as bounds.

One may read the IC50 as the concentration at which inhibition is half-maximal. With `S=C(NCC12CC3CC(CC(C3)C1)C2)Nc1ccc(Br)cn1`, in test [1], the half-inhibitory concentration (IC50) is more than 100000 nM.
A word on the CC50: it is the concentration at which the toxic effect on the cells reaches its halfway point. A low value points to greater toxicity to the cells. Regarding `S=C(NCCc1ccccn1)Nc1ccc(Br)cn1` [TROVIRDINE], the IC50 in test [2] is 500 nM; in test [3], more than 100 µM; in test [4] it was 7 nM; in test [5], 20 nM. The compound further showed a CC50 in test [6] of more than 100 µM.
Regarding `FC(F)(F)c1ccc(/N=C(\S)NCCC2=CCCCC2)nc1`, the IC50 in test [2] was 300 nM; in test [3], more than 100 µM; in test [4], 79 nM; in test [5] it was 38 nM; in test [1], 4000 nM. In test [6], this compound returned a CC50 of more than 100 µM.
For `Cc1ccnc2c1NC(=O)c1cccnc1N2C1CC1` [NEVIRAPINE], the IC50 is more than 100000 nM in test [2], more than 100 µM in test [3], 34 nM in test [4] and 5000 nM in test [5]. The compound also registered a CC50 in test [6] of 10.5 µM.
Taken in the same sequence, the figures for `CC(C)Nc1cccnc1N1CCN(C(=O)c2cc3cc(NS(C)(=O)=O)ccc3[nH]2)CC1` [DELAVIRDINE] were 50000 nM, more than 100 µM, 9 nM, 400 nM and 3.6 µM.
On to `S=C(NCCC1=CCCCC1)Nc1ccc(Cl)cn1`, for which the IC50 in test [2] stood at 68 nM; in test [3] it was 30 µM; in test [4] it was 3 nM; in test [5] it was 1 nM; in test [1], 500 nM. The CC50 in test [6] was more than 100 µM.
With `CCOCn1c(Cc2ccccc2)c(C(C)C)c(=O)[nH]c1=O` [EMIVIRINE], half-maximal inhibition in test [5] (IC50) required 300 nM. Further, the CC50 in test [6] is more than 100 µM.
Turning to `S=C(NCCC1=CCCCC1)Nc1ccc(Br)cn1`, the IC50 is 18.7 µM in test [3], 3 nM in test [4], 1 nM in test [5] and 400 nM in test [1]. Also, in test [6], the CC50 is more than 100 µM.
Take `Cc1cn([C@H]2C[C@H](N=[N+]=[N-])[C@@H](CO)O2)c(=O)[nH]c1=O` [ZIDOVUDINE]: the IC50 in test [2] turned out to be 6 nM; in test [3], 0.004 µM; in test [5], 200 nM. In addition, the CC50 in test [6] is more than 100 µM.
On to `CC1(C)C2CC(C/N=C(\S)Nc3ccc(Br)cn3)CC1C2` (stereo not given), for which the IC50 in test [1] was more than 100000 nM.
